Changes are numbered by the printed parent chain.
Experiments:
Format in all cases: biochemical
[1] = molecular target: T1, human serine dehydratase (hSDH) Variant 4 (I13T, S26N, R51H, I96T, D114E, G129D, K221R, A222S, W157R, D261L, L112S), SEQ ID NO: 5 (Homo sapiens, UniProt P20132, A222S/D114E/D261L/G129D/I13T/I96T/K221R/L112S/R51H/S26N/W157R); assay: MBTH assay, kcat/Km of purified hSDH Variant 4; conditions: role: substrate; threonine 1-100 mM, 1-2 μM enzyme, 37 °C, 20 seconds
T1 sequence (P20132 1-328 I13T/S26N/R51H/I96T/L112S/D114E/G129D/W157R/K221R/A222S/D261L): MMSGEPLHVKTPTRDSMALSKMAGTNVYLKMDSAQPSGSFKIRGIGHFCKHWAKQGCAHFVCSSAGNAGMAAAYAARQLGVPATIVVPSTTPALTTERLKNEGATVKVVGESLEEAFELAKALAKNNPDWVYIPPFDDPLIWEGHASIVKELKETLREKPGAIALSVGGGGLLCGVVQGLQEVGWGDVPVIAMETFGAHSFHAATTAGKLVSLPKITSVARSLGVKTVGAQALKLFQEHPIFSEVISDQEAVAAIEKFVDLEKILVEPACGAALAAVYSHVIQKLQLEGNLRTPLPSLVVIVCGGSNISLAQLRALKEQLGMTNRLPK
Protocol: (§1) Human SDH variants were expressed and purified for subsequent biophysical characterization. In brief, hSDH variants in the pET28a plasmid was transformed into BL21 (DE3) for expression. The cells were grown overnight at 37 °C in 5 mL of TB media with 50 μg/mL of kanamycin. The subsequent morning, cultures were inoculated, at a 1:1000 dilution, into 0.5 L of fresh TB media containing 50 μg/mL of kanamycin. Upon reaching an A600 of 0.6 to 0.8, the culture was moved to 25 °C and isopropyl β-D-1-thiogalactopyranoside (IPTG) was added to a final concentration of 1 mM to induce T7 RNA polymerase expression, and subsequently hSDH variant protein expression. After overnight incubation, cells were harvested via centrifugation at 5,500 rpm for 20 minutes. The cell pellet, after removing the supernatant, was resuspended using 25 mL of pET lysis buffer (10 mM NaH2PO4, 30 mM imidazole, 300 mM NaCl, pH 8.0). The cell suspension was then lysed by sonication and cleared by centrifugation at 14,000 rpm for 40 minutes. […] Purity of the proteins were analyzed via sodium dodecyl sulfate-polyacrylamide gel electrophoresis (SDS-PAGE) on a 4% to 20% pre-cast Tris-Glycine gel run under reducing conditions (2.5% β-Mercaptoethanol (BME). Protein concentration was determined via A280 under denaturing conditions using a calculated extinction coefficient (8280=33960 M^−1 cm^−1) from Geneious software (v. 8.0.5). […]

[2] = molecular target: T2, human serine dehydratase (hSDH, EC 4.3.1.17), wild type, SEQ ID NO: 1 (Homo sapiens, UniProt P20132); assay: MBTH assay, kcat/Km of purified wild-type hSDH; conditions: role: substrate
T2 construct: hexahistidine (N); made in house; host or cells: E. coli BL21 (DE3), pET28a
T2 sequence (P20132 1-328): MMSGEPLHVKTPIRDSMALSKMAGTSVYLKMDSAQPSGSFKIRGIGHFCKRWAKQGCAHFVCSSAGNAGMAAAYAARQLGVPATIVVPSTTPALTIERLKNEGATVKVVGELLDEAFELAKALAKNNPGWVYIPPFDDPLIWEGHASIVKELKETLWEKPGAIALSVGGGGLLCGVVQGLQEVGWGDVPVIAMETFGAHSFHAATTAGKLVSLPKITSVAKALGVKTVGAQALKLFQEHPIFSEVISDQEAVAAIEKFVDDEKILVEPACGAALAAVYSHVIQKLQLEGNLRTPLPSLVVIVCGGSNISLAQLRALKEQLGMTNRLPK
Protocol: Human SDH variants were expressed and purified for subsequent biophysical characterization. In brief, hSDH variants in the pET28a plasmid was transformed into BL21 (DE3) for expression. The cells were grown overnight at 37 °C in 5 mL of TB media with 50 μg/mL of kanamycin. The subsequent morning, cultures were inoculated, at a 1:1000 dilution, into 0.5 L of fresh TB media containing 50 μg/mL of kanamycin. Upon reaching an A600 of 0.6 to 0.8, the culture was moved to 25 °C and isopropyl β-D-1-thiogalactopyranoside (IPTG) was added to a final concentration of 1 mM to induce T7 RNA polymerase expression, and subsequently hSDH variant protein expression. After overnight incubation, cells were harvested via centrifugation at 5,500 rpm for 20 minutes. The cell pellet, after removing the supernatant, was resuspended using 25 mL of pET lysis buffer (10 mM NaH2PO4, 30 mM imidazole, 300 mM NaCl, pH 8.0). The cell suspension was then lysed by sonication and cleared by centrifugation at 14,000 rpm for 40 minutes. The supernatant from this centrifugation step was then filtered using a 0.22 μm membrane. The clarified supernatant was then applied to 1 mL of nickel-nitrotriacetic acid (Ni-NTA) resin that had been pre-equilibrated with 20 mL of pET lysis buffer. The resin was washed with 20 mL (20 column volumes) of pET lysis buffer. Afterward, the resin was incubated with 3 mL of pET elution buffer (10 mM NaH2POd4, 250 mM imidazole, 300 mM NaCl, pH 8.0), equilibrated for 5 minutes, and then eluted. The elution step was then repeated with 2 ml of extra elution buffer to increase recovery. […] Purity of the proteins were analyzed via sodium dodecyl sulfate-polyacrylamide gel electrophoresis (SDS-PAGE) on a 4% to 20% pre-cast Tris-Glycine gel run under reducing conditions (2.5% β-Mercaptoethanol (BME). Protein concentration was determined via A280 under denaturing conditions using a calculated extinction coefficient (8280=33960 M^−1 cm^−1) from Geneious software (v. 8.0.5). […]

[3] = molecular target: T3, human serine dehydratase (hSDH) Variant 3 (S26N, R51H, S63P, M70I, L94P, G129D, A204S, K221R, A222S, L112S), SEQ ID NO: 4 (Homo sapiens, UniProt P20132, A204S/A222S/G129D/K221R/L112S/L94P/M70I/R51H/S26N/S63P); assay: MBTH assay, kcat/Km of purified hSDH Variant 3; conditions: role: substrate; threonine 1-100 mM, 1-2 μM enzyme, 37 °C, 20 seconds
T3 sequence (P20132 1-328 S26N/R51H/S63P/M70I/L94P/L112S/G129D/A204S/K221R/A222S): T1 sequence (P20132 1-328 I13T/S26N/R51H/I96T/L112S/D114E/G129D/W157R/K221R/A222S/D261L) with T13I, S63P, M70I, L94P, T96I, E114D, R157W, A204S, L261D
Protocol: as §1

[4] = molecular target: T4, human serine dehydratase (hSDH) Variant 5 (I13T, S26N, R51H, I96T, D114E, G129D, K221R, A222G, W157R, D261L, L112S), SEQ ID NO: 6 (Homo sapiens, UniProt P20132, A222G/D114E/D261L/G129D/I13T/I96T/K221R/L112S/R51H/S26N/W157R); assay: MBTH assay, kcat/Km of purified hSDH Variant 5; conditions: role: substrate; threonine 1-100 mM, 1-2 μM enzyme, 37 °C, 20 seconds
T4 sequence (P20132 1-328 I13T/S26N/R51H/I96T/L112S/D114E/G129D/W157R/K221R/A222G/D261L): T1 sequence (P20132 1-328 I13T/S26N/R51H/I96T/L112S/D114E/G129D/W157R/K221R/A222S/D261L) with S222G
Protocol: as §1

[5] = molecular target: T5, human serine dehydratase (hSDH) Variant 1 (K221F, A222S), SEQ ID NO: 2 (Homo sapiens, UniProt P20132, A222S/K221F); assay: MBTH assay, kcat/Km of purified hSDH Variant 1; conditions: role: substrate; threonine 1-100 mM, 1-2 μM enzyme, 37 °C, 20 seconds
T5 construct: hexahistidine (N); made in house; host or cells: E. coli BL21 (DE3), pET28a
T5 sequence (P20132 1-328 K221F/A222S): T2 sequence (P20132 1-328) with K221F, A222S
Protocol: as §1

[6] = molecular target: T6, human serine dehydratase (hSDH) Variant 2 (S26N, R51H, S63P, M70I, L94P, G129D, A204S, K221R, A222S), SEQ ID NO: 3 (Homo sapiens, UniProt P20132, A204S/A222S/G129D/K221R/L94P/M70I/R51H/S26N/S63P); assay: MBTH assay, kcat/Km of purified hSDH Variant 2; conditions: role: substrate; threonine 1-100 mM, 1-2 μM enzyme, 37 °C, 20 seconds
T6 sequence (P20132 1-328 S26N/R51H/S63P/M70I/L94P/G129D/A204S/K221R/A222S): T2 sequence (P20132 1-328) with S26N, R51H, S63P, M70I, L94P, G129D, A204S, K221R, A222S
Protocol: as §1

Structure (SMILES) | Kcat /Km (Threonine) [1] | kcat/KM (L-threonine to α-ketobutyrate) ([2]; irreversible deamination of L-threonine to α-ketobutyrate) | Kcat /Km (Threonine) ([2]; threonine 1-100 mM, 1-2 μM enzyme, 37 °C, 20 seconds) | Kcat /Km (Threonine) [3] | Kcat /Km (Threonine) [4] | Kcat /Km (Threonine) [5] | Kcat /Km (Threonine) [6] | kcat/KM (L-serine to pyruvate) ([2]; irreversible deamination of L-serine to pyruvate)
C[C@@H](O)[C@H](N)C(=O)O [Threonine, L-threonine] | 6800 ± 700 M⁻¹ s⁻¹ | ~ 1.1 s^−1 mM^−1 | 1100 ± 50 M⁻¹ s⁻¹ | 2800 ± 200 M⁻¹ s⁻¹ | 1700 ± 100 M⁻¹ s⁻¹ | 3800 ± 300 M⁻¹ s⁻¹ | 2000 ± 50 M⁻¹ s⁻¹ | –
N[C@@H](CO)C(=O)O [Serine, L-serine] | – | – | – | – | – | – | – | ~ 0.6 s^−1 mM^−1
